These results are taken from BindingDB's records for doi:10.1021/bi401354d (Pfizer, 2013).

The test deals with T1, Myeloperoxidase (Homo sapiens, UniProt P05164).
T1 sequence (P05164 whole entry): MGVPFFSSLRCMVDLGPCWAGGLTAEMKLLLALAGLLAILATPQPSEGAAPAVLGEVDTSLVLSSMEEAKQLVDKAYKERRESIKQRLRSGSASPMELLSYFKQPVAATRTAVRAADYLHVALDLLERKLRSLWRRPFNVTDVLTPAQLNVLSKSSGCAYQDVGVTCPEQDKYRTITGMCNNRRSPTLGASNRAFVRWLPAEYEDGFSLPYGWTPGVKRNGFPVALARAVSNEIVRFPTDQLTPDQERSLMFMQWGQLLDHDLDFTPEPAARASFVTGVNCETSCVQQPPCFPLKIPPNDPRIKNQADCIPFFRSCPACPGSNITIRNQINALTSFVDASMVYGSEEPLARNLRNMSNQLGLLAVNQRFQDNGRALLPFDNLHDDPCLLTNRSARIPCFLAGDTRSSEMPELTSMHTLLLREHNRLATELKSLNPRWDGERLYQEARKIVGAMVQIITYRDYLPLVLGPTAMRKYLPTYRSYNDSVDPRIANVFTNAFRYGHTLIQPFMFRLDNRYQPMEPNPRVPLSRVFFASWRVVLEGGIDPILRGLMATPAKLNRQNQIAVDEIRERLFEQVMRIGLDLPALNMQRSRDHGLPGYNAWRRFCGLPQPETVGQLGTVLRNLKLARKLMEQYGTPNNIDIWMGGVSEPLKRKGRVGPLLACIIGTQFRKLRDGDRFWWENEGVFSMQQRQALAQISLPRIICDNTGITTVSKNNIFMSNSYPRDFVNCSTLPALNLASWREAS
In words: MPO Activity Assay. The settings on record: pH 7.4. The method, then: Assay mixtures (100 µL) contained 50 mM NaPi (pH 7.4), 150 mM NaCl, 1 mM DTPA, 2% DMSO, the indicated concentrations of H2O2, and Amplex Red. The reactions were initiated by the addition of 100 pM MPO. The fluorescent changes were measured at 530 (excitation) and 580 nm (emission).
For the compound `CCOC(C)Cn1c(=S)[nH]c(=O)c2[nH]cnc21` (stereo not drawn) [3‐(2‐ethoxypropyl)‐2‐sulfanylidene‐1,9‐ dihydropurin‐6‐one (A)], the Ki came to 0.413 µM. The compound `CCO[C@H](C)Cn1c(=S)[nH]c(=O)c2[nH]cnc21` [3‐[(2R)‐2‐ethoxypropyl]‐2‐sulfanylidene‐1,9‐ dihydropurin‐6‐one (C)] registered a Ki of 0.546 µM. Next, `CCO[C@@H](C)Cn1c(=S)[nH]c(=O)c2[nH]cnc21` [3‐[(2S)‐2‐ethoxypropyl]‐2‐sulfanylidene‐1,9‐ dihydropurin‐6‐one (D)]: 0.429 µM.
